Results on 8 molecules are retold here after patent US20250319117A1, “METHODS AND COMPOSITIONS FOR TREATING FIBROSIS” (THE UNIVERSITY OF CHICAGO, priority 2021, published 2025).

Series [1] relates to talin1 and talin2. Particulars: literature [83]; cited from earlier work.
The test system of series [2] is mouse monocyte-derived myofibroblasts. Description: Mouse monocyte-derived myofibroblast de-differentiation assessed by morphology. The class given is cell-based. Particulars: 1 week (FIG. 2A, 2B). The source says: Spleens were pushed through a 100 µm filter to disassociate the cells. Monocytes were purified from disassociated cells by use of a negative selection kit (Stemcell), following the manufacturer's instructions. The purified monocytes were then washed by PBS using five successive 300×G centrifugation steps, in order to remove EDTA from the resulting population. Monocytes were checked for purity using flow cytometry, and average purity was above 95%. The average yield was 1.5 million monocytes per spleen. Monocytes were cultured immediately following purification, at 250,000 monocytes/cm^2.
Human and mouse monocytes were cultured as previously described, using serum-free media (SFM). Briefly, SFM for human cells is composed of fibrolife (Lifeline, Frederick, MD), with 1× ITS-3 (Sigma, St. Louis, MO), 1× HEPES buffer (Sigma), 1× non-essential amino acids (Sigma), 1× sodium pyruvate (Sigma), and penicillin-streptomycin with glutamate (Sigma). For mouse monocytes, 2× concentrations of ITS-3, HEPES buffer, non-essential amino acids, and sodium pyruvate were added, with 50 μM β-mercaptoenthanol (ThermoFisher) and pro-fibrotic supplements M-CSF (25 ng/ml, Peprotech, Rocky Hill, NJ) and IL-13 (50 ng/ml) to induce myofibroblast differentiation. […] Monocytes were allowed to differentiate for 5 days, and counted based on morphology as previously described. […]

Series [3] relates to human monocyte-derived myofibroblasts. As to the kind of experiment: Legendplex ELISA of conditioned media, human monocyte-derived myofibroblasts. Particulars: antibody 500 ng/ml, leukadherin 2 ng/ml. The format is cell-based. As for the experimental part:
Supernatant from cultured human and mouse myofibroblasts were thawed at 4 C, and centrifuged at 4 C and 10,000×G to pellet cell debris. Supernatant was taken and added to 96 well round bottom plates, in duplicate. Legendplex (Biolegend) beads against general inflammation markers were added, according to the manufacturer's instructions. Sample readouts were normalized to each individual donor control.
On the technique in general: An ELISA detects its analyte on a solid surface through an enzyme-linked reagent.

For series [4], the system named is mouse monocyte-derived myofibroblasts. As to the kind of experiment: Flow cytometry of mouse monocyte-derived myofibroblasts treated with antibodies or leukadherin. The class given is cell-based. Particulars: antibody 500 ng/ml. The source says:
(§1) Myofibroblasts were de-differentiated by addition of antibodies (α-αMβ2, α-αM, α-α3) for 7 days after the 5 day differentiation was completed. Antibodies were free of azide, glycerol, and other preservatives.
(§2) Cultured myofibroblasts were lifted with ice cold trypsin-EDTA (Sigma), followed by mechanical agitation by a rubber policeman. Myofibroblasts were fixed and permeabilized using Cytofix/Cytoperm (BD biosciences, Franklin Lakes, NJ), and live-dead stained (live-dead aqua, ThermoFisher) per manufacturer's instructions. Antibodies used were α-collagen I (Biolegend, San Diego, CA), anti-α smooth muscle actin (αSMA) (R and D systems, Minneapolis, MN), α-ki-67 (BD biosciences), and α-talin2 (R and D systems). Compensation was performed via UltraComp beads (ThermoFisher) per the manufacturer's instructions.
(In general: Flow cytometry measures light scatter and fluorescence of single cells or particles in a stream.)

The test system of series [5] is human monocyte-derived myofibroblasts. As to the kind of experiment: Flow cytometry of human monocyte-derived myofibroblasts treated with antibodies or leukadherin. The format is cell-based. Particulars: antibody 500 ng/ml, leukadherin 2 ng/ml.
Description: as §1, §2

In series [6] the test system is human monocyte-myofibroblast differentiation. Description: Human monocyte-myofibroblast de-differentiation assessed by morphology. The class given is cell-based. Particulars: added to culture of human monocyte-myofibroblasts (FIG. 1A, 1B). As for the experimental part: Monocytes were purified from PBMCs by use of a negative selection kit for human monocytes (Stemcell, Cambridge, MA), per the manufacturer's instructions. Approximately 20 million monocytes were purified from each filter. Monocytes were then washed by PBS using five successive 300×G centrifugation steps, in order to remove EDTA from the resulting population. Monocytes were checked for purity using flow cytometry, and average purity was above 95%. Monocytes were cultured immediately following purification, at 100,000 monocytes/cm^2.
Human and mouse monocytes were cultured as previously described, using serum-free media (SFM). Briefly, SFM for human cells is composed of fibrolife (Lifeline, Frederick, MD), with 1× ITS-3 (Sigma, St. Louis, MO), 1× HEPES buffer (Sigma), 1× non-essential amino acids (Sigma), 1× sodium pyruvate (Sigma), and penicillin-streptomycin with glutamate (Sigma). For mouse monocytes, 2× concentrations of ITS-3, HEPES buffer, non-essential amino acids, and sodium pyruvate were added, with 50 μM β-mercaptoenthanol (ThermoFisher) and pro-fibrotic supplements M-CSF (25 ng/ml, Peprotech, Rocky Hill, NJ) and IL-13 (50 ng/ml) to induce myofibroblast differentiation. Additionally, M-CSF and IL-13 were refreshed in the media of mouse monocytes after 3 days of culture. Monocytes were allowed to differentiate for 5 days, and counted based on morphology as previously described. […]

Series [7] addresses Integrin αMβ2 (human, MAC1, on monocyte-derived myofibroblasts) (human) (UniProt P11215). As to the kind of experiment: cell-based or functional assay.
Series [8] concerns the target Integrin-αM (human, on monocyte-derived myofibroblasts) (human) (UniProt P11215). As to the kind of experiment: cell-based or functional assay.
Series [9] concerns fibrosis. Particulars: literature [4], [6]; cited from earlier work.
In series [10] the test system is mouse monocyte-derived myofibroblasts. As to the kind of experiment: Flow cytometry of mouse monocyte-derived myofibroblasts treated with siRNA. The class given is cell-based. Particulars: 50 nM siRNA mixtures or individual siRNAs (FIG. 27D). How it is done:
Human and mouse monocytes were cultured as previously described, using serum-free media (SFM). Briefly, SFM for human cells is composed of fibrolife (Lifeline, Frederick, MD), with 1× ITS-3 (Sigma, St. Louis, MO), 1× HEPES buffer (Sigma), 1× non-essential amino acids (Sigma), 1× sodium pyruvate (Sigma), and penicillin-streptomycin with glutamate (Sigma). For mice, 2× concentrations of ITS-3, HEPES buffer, non-essential amino acids, and sodium pyruvate are added. For mouse monocytes, […] beta-mercaptoenthanol (ThermoFisher) was also added, as were pro-fibrotic supplements M-CSF (25 ng/ml, Peprotech, Rocky Hill, NJ) and IL-13 (50 ng/ml). Additionally, M-CSF and IL-13 were refreshed in the media of mouse monocytes after 3 days of culture.
Accell Silencing RNA (siRNA, Dharmacon, Lafayette, CO) is specifically engineered to penetrate cells without the use of transfection reagents, due to a cholesterol modification at one terminus of the sequence. […] Thus, Accell siRNA targets all cells in a population, not just those that are replicating. […] Lastly, Accell siRNA contains a modification that inhibits enzymatic digestion within cells. Thus, Accell siRNA made a natural choice for this experiment, and all siRNAs used in this study are Accell siRNA. siRNA was resuspended in RNAse-free ultrapure water, as per the manufacturer's instructions. […]

Series [11] relates to bleomycin insult to mouse lungs. As to the kind of experiment: Bleomycin lung fibrosis model, lung instillation of talin2 siRNA. The format is in vivo.
Series [12] has as its system mouse fibroblast-derived myofibroblasts. As to the kind of experiment: Flow cytometry of mouse fibroblast-derived myofibroblasts treated with siRNA. Particulars: 50 nM siRNA. The class given is cell-based. As for the experimental part: Human fibroblasts (MRC-5, ATCC, Manassas, VA) and mouse fibroblasts (NIH-3T3, ATCC) were cultured in SFM composed for human cells, with 1× concentrations of additives. TGF-b (Peprotech) was added to induce myofibroblast formation at 5 ng/ml. Cells were cultured at 10,000/cm^2, and TGF-β was refreshed in cultures weekly to maintain the myofibroblast phenotype.
The SMARTpool of siRNA targeting human talin2 contained four target sequences, while the anti-parallel corresponding siRNA sequences actually silenced the mRNA. Target sequences: #1 (CCAGAAAACUGAACGAUUA) (SEQ ID NO:29), #2 (GCCCUGUCCUUAAAGAUUU) (SEQ ID NO:30), #3 (CGACUGUGGUUAAAUACUC) (SEQ ID NO:31), and #4 (CGAGAAAGCUUGUGAGUUU) (SEQ ID NO:32). SMARTpool targeting mouse talin2 also contained four target sequences: #1 […], #2 (CUGGAAAAUUCAGUGAUGA) (SEQ ID NO:26), #3 (CCCUGGAUUUUGAAGAACA) (SEQ ID NO:27), and #4 (CCAUCGAGUACAUAAAACA) (SEQ ID NO:28). Control non-targeting SMARTpools contained 4 target sequences, including: #1 (CCAGAAAACUGAACGAUUA) (SEQ ID NO:29), #2 (GCCCUGUCCUUAAAGAUUU) (SEQ ID NO:30), #3 (CGACUGUGGUUAAAUACUC) (SEQ ID NO:31), and #4 (CGAGAAAGCUUGUGAGUUU) (SEQ ID NO:32). Individual siRNA tested in mice was talin2 siRNA #2, target: 5′ CUGGAAAAUUCAGUGAUGA 3′ (SEQ ID NO:26), anti-sense: 5′ UCAUCACUGAAUUUUCCAG 3′ (SEQ ID NO:37). […]

For the molecule `O=C(COc1ccc2c(c1)OCO2)NC(=O)NCCc1c[nH]c2ccccc12` [KCH-1521], in [1], the adhesion-dependent angiogenesis entry is “decreases adhesion-dependent angiogenesis”; the “distinction between talin1 and talin2” value is “does not distinguish between talin1 and talin2”.

As for leukadherin, the “myofibroblast de-differentiation or differentiation by morphology” value in series [2] is listed as “increased monocyte-derived myofibroblast differentiation”. Further, the “secreted MCP1” value in series [3] (conditioned media after 1 week (FIG. 9A)) is given as “promoted the secretion of MCP1”. Further, the “secreted IL-6” value in [3] (conditioned media after 1 week (FIG. 9C)) is “promoted the secretion of MCP1 (FIG. 9A) and IL-6”. The “αSMA+ and collagen I+ double positive myofibroblasts” value in series [4] (leukadherin 2 ng/ml (FIG. 2C)) was “increased both the amount of α αSMA^+ and collagen I^+ double positive monocyte-myofibroblasts”. Also, the “talin2+ cells / talin2 concentration” value in [4] (leukadherin 2 ng/ml (FIG. 2D)) is “increasing talin2 concentration in these cells”. For the same molecule, the “αSMA+ collagen I+ double positive cells” value in [5] (flow cytometry (FIG. 1C)) was “increased the amount of αSMA^+ collagen I^+ double positive cells”. The talin2 expression entry in series [5] (flow cytometry (FIG. 1D)) was “nor integrin interaction promoters (Gi14, leukadherin) significantly altered talin2 expression”. In addition, the “myofibroblast de-differentiation or differentiation as determined by morphology” value in series [6] was “promoted myofibroblasts differentiation”.

In turn, α-αMβ2 (MAC1, clone CBRM1/5) (antibody) had an IC50 for human monocyte-myofibroblast differentiation (de-differentiation by morphology) in series [7] of 63.3 ng/ml.

Take α-αM (clone ICRF44) (antibody): the IC50 for human monocyte-myofibroblast differentiation (de-differentiation by morphology) in [8] was 59.7 ng/ml.

Regarding PRM-151: recombinant pentraxin-2, the “effect on progression of fibrosis” value in series [9] is recorded as “shown even a modest ability to reverse fibrosis in some patients”.

For `COC(=O)c1ccc2c(c1)NC(=O)/C2=C(\Nc1ccc(N(C)C(=O)CN2CCN(C)CC2)cc1)c1ccccc1` [nintedanib], the “effect on progression of fibrosis” value in series [9] was “slow, but do not reverse, the progression of fibrosis”.

“talin2 siRNA #2: individual Accell siRNA against mouse talin2; target CUGGAAAAUUCAGUGAUGA (SEQ ID NO:26), antisense UCAUCACUGAAUUUUCCAG (SEQ ID NO:37) (Accell modifications, chemistry not fully specified)”: the “αSMA and collagen I double-positive cells / myofibroblast differentiation” value in series [10] is “inhibited myofibroblast differentiation by itself”. For the same molecule, the mouse weight entry in [11] (200 nM by lung instillation at 7, 9, 11, 14, 16, 18 days post bleomycin, to day 21 (FIG. 29A)) is on record as “showed a lesser transient weight decrease than did the controls”. In addition, in series [11] (200 nM by lung instillation x6, day 21 (FIG. 29B-C)), the “amount of collagen in the lungs (hydroxyproline assay)” value is on record as “reduced the amount of collagen in the lungs”. For the same molecule, the “blinded Ashcroft scoring of Masson's trichrome-stained lung sections” value in series [11] (200 nM by lung instillation x6, day 21 (FIG. 29D)) was “improved the histological readout of lung fibrosis”. Also, the “lung fibrosis in Masson's trichrome images” value in series [11] (vs non-targeting siRNA and untreated fibrotic lungs (FIG. 29E-L)) is “rescued lung fibrosis compared to non-targeting siRNA and untreated fibrotic lungs”. Further, in series [12] (mouse cell cultures (FIG. 28C)), the “αSMA and collagen I double-positive myofibroblasts” value was “most reduced both αSMA and collagen I double-positive”. Also, the talin2 positive myofibroblasts result in [12] (mouse cell cultures (FIG. 28D)) was “most reduced both αSMA and collagen I double-positive (FIG. 28C) and talin2 positive (FIG. 28D) myofibroblasts”.

Take `Cc1ccc(=O)n(-c2ccccc2)c1` [pirfenidone]: the “effect on progression of fibrosis” value in series [9] is “slow, but do not reverse, the progression of fibrosis”.
